Laboratory results taken from patent publication US10647680B2, “Urea compound, preparation method therefor and medical use thereof” (Ancureall Pharmaceutical (Shanghai) Co., Ltd., priority 2016, dated 2020).

Legend:
[1] = test system: MV4-11 (FLT3 ITD+/+ mutant type); assay: In vitro growth inhibition (GI50), MV4-11; assay type: cell-based, human; details: Homo sapiens, MV4-11; Cell lines of leukemia; read-out: GI 50 MV4-11 FLT3 (ITD +/+)
[2] = test system: MOLM-13 (FLT3 ITD+/− mutant type); assay: In vitro growth inhibition (GI50), MOLM-13; assay type: cell-based, human; details: Homo sapiens, MOLM-13; Cell lines of leukemia; read-out: GI 50 MOLM-13 FLT3 (ITD+/−)
[3] = test system: RS4; 11 (FLT3 wild type); assay: In vitro growth inhibition (GI50), RS4; 11; assay type: cell-based, human; details: Homo sapiens, RS4-11; Cell lines of leukemia; read-out: GI 50 RS4: 11 FLT3 (WT)
[4] = test system: K562 (FLT3 negative expression, positive expression of BCR-ABL fusion protein); assay: In vitro growth inhibition (GI50), K562; assay type: cell-based; details: Homo sapiens, Cell lines of leukemia, read-out: GI 50 K562 BCR-ABL
[5] = test system: RAMOS (positive expression of Brutons tyrosine protein kinase); assay: In vitro growth inhibition (GI50), RAMOS; assay type: cell-based; details: Homo sapiens, Cell lines of leukemia, read-out: GI 50 Ramos BTK
[6] = test system: U937 (FLT3 wild-type); assay: In vitro growth inhibition (GI50), U937; assay type: cell-based; details: Homo sapiens, U-937; Cell lines of leukemia; read-out: GI 50 U937 FLT 3(WT)
[7] = test system: Kasumi-1 (c-Kit N822K mutant type); assay: In vitro growth inhibition (GI50), Kasumi-1; assay type: cell-based; details: Homo sapiens, Cell lines of leukemia, read-out: GI 50 Kasumi-1 Kit (N822K)
Method in brief: (§1)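 After 3–5 days of treatment (top concentration 5,000 nM, serially diluted 2- or 10-fold to 0.01 nM, solvent ≤1%), viability was read by CCK8 at OD450. Growth rate was normalised to the time-zero and solvent-control wells, and GI50 was derived from the curve. Cultures in RPMI1640 + 10% FBS.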

[8] = test system: KG-1 (expressing FGFR1OP2-FGFR1 fusion protein); assay: In vitro growth inhibition (GI50), KG-1; assay type: cell-based; details: Homo sapiens; Cell lines of leukemia; read-out: GI 50 KG-1 FGFR1OP 2-FGFR1
[9] = test system: HL-60 (FLT3 wild type); assay: In vitro growth inhibition (GI50), HL-60; assay type: cell-based; details: Homo sapiens, Cell lines of leukemia, read-out: GI 50 HL60 FLT3 (WT)
Method in brief: as §1

[10] = test system: OCI-AML3 (NPMc+ mutant type); assay: In vitro growth inhibition (GI50), OCI-AML3; assay type: cell-based; details: Homo sapiens, OCI-AML-3; Cell lines of leukemia; read-out: GI 50 OCI- AML3 NPMc+

| GI50 [1] | GI50 [2] | GI50 [3] | GI50 [4] | GI50 [5] | GI50 [6] | GI50 [9] | GI50 [10] | Structure (SMILES) | GI50 [7] | GI50 [8] |
| --- | --- | --- | --- | --- | --- | --- | --- | --- | --- | --- |
| 0.01 to 0.1 µM | 0.01 to 0.1 µM | > 1 µM | > 1 µM | > 1 µM | > 1 µM | > 1 µM | > 1 µM | COCCOc1ccc2ncn(-c3ccc(NC(=O)n4nc(C(C)(C)C)cc4N)cc3)c2c1 [Compound 128, 5-amino-3-tert-butyl-pyrazol-1-carboxylic acid {4-[6-(2-methoxyl-ethoxyl)-benzimidazol-1-yl]-phenyl}-amide] | > 1 µM | > 1 µM |
| 0.001 to 0.01 µM | 0.001 to 0.01 µM | > 1 µM | > 1 µM | > 1 µM | > 1 µM | > 1 µM | > 1 µM | CC(C)(C)c1cc(NC(=O)Nc2ccc(-n3cnc4cc(OCc5cccc(F)c5)ccc43)cc2)[nH]n1 [Compound 93, 1-(5-tert-butyl-2H-pyrazol-3-yl)-3-{4-[5-(3-fluoro-benzyloxy)-benzimidazol-1-yl]-phenyl]-urea] | > 1 µM | > 1 µM |
| 0.1 to 1 µM | 0.1 to 1 µM | > 1 µM | > 1 µM | > 1 µM | > 1 µM | > 1 µM | > 1 µM | Cc1cc(NC(=O)Nc2ccc(-n3cnc4ccccc43)cc2)n[nH]1 [Compound 64, 1-(4-benzimidazol-1-yl-phenyl)-3-(5-methyl-1H-pyrazol-3-yl)-urea] | > 1 µM | 0.1 to 1 µM |
| 0.001 to 0.01 µM | 0.001 to 0.01 µM | 0.1 to 1 µM | 0.1 to 1 µM | > 1 µM | > 1 µM | > 1 µM | > 1 µM | CN(C)c1ncnc2ncn(-c3ccc(NC(=O)Nc4cc(C(C)(C)C)on4)cc3)c12 [Compound 59, 1-(5-tert-butyl-isoxazol-3-yl)-3-[4-(6-dimethylamino-purin-7-yl)-phenyl]-urea] | > 1 µM | 0.1 to 1 µM |
| 0.001 to 0.01 µM | 0.001 to 0.01 µM | > 1 µM | > 1 µM | > 1 µM | > 1 µM | > 1 µM | > 1 µM | CC(C)(C)c1cc(NC(=O)Nc2ccc(-n3cnc4cc(C(F)(F)F)cnc43)cc2)no1 [Compound 52, 1-(5-tert-butyl-isoxazol-3-yl)-3-[4-(6-trifluoromethyl-imidazo[4,5-b]pyridin-3-yl)-phenyl]-urea] | > 1 µM | > 1 µM |
| 0.001 to 0.01 µM | 0.001 to 0.01 µM | 0.1 to 1 µM | 0.1 to 1 µM | > 1 µM | > 1 µM | > 1 µM | > 1 µM | Cc1ccc2c(c1)ncn2-c1ccc(NC(=O)Nc2cc(C(C)(C)C)on2)cc1 [Compound 24, 1-(5-tert-butyl-isoxazol-3-yl)-3-[4-(5-methyl-benzimidazol-1-yl)-phenyl]-urea] | > 1 µM | > 1 µM |
| > 1 µM | > 1 µM | > 1 µM | > 1 µM | > 1 µM | > 1 µM | > 1 µM | > 1 µM | O=C(Nc1ccc(-n2cnc3ccccc32)cc1)Nc1nncs1 [Compound 62, 1-(4-benzimidazol-1-yl-phenyl)-3-[1,3,4]thiadiazol-2-yl-urea] | > 1 µM | > 1 µM |
| 0.0001 to 0.001 µM | 0.0001 to 0.001 µM | > 1 µM | > 1 µM | > 1 µM | > 1 µM | > 1 µM | > 1 µM | CCOCCOc1ccc2c(c1)ncn2-c1ccc(NC(=O)Nc2cc(C(C)(C)C)n[nH]2)cc1 [Compound 78, 1-(5-tert-butyl-2H-pyrazol-3-yl)-3-{4-[5-(2-ethoxyl-ethoxyl)-benzimidazol-1-yl]-phenyl}-urea] | > 1 µM | > 1 µM |
| 0.0001 to 0.001 µM | 0.0001 to 0.001 µM | 0.1 to 1 µM | 0.1 to 1 µM | > 1 µM | > 1 µM | > 1 µM | > 1 µM | COCCOc1ccc2ncn(-c3ccc(NC(=O)Nc4cc(C(C)(C)C)on4)cc3)c2c1 [Compound 26, 1-(5-tert-butyl-isoxazol-3-yl)-3-{4-[6-(2-methoxyl-ethoxyl)-benzimidazol-1-yl]-phenyl]urea] | > 1 µM | > 1 µM |
| 0.001 to 0.01 µM | 0.001 to 0.01 µM | > 1 µM | > 1 µM | > 1 µM | > 1 µM | > 1 µM | > 1 µM | CC(C)(C)c1cc(N)n(C(=O)Nc2ccc(-n3cnc4cc(OCC5CCCO5)ccc43)cc2)n1 (centres unmarked) [Compound 123, 5-amino-3-tert-butyl-pyrazol-1-carboxylic acid {4-[5-(tetrahydro-furan-2-ylmethoxy)-benzimidazol-1-yl]-phenyl}-amide] | > 1 µM | > 1 µM |
| 0.0001 to 0.001 µM | 0.0001 to 0.001 µM | > 1 µM | > 1 µM | > 1 µM | > 1 µM | > 1 µM | > 1 µM | CCOCCOc1ccc2c(c1)ncn2-c1ccc(NC(=O)Nc2cc(C(C)(C)C)on2)cc1 [Compound 13, 1-(5-tert-butyl-isoxazol-3-yl)-3-{4-[5-(2-ethoxyl-ethoxyl)-benzimidazol-1-yl]-phenyl]-urea] | > 1 µM | > 1 µM |
| 0.0001 to 0.001 µM | 0.0001 to 0.001 µM | > 1 µM | > 1 µM | > 1 µM | > 1 µM | > 1 µM | > 1 µM | CC(C)(C)c1cc(NC(=O)Nc2ccc(-n3cnc4cc(OC(=O)N5CCOCC5)ccc43)cc2)no1 [Compound 15, 1-{4-[3-(5-tert-butyl-isoxazol-3-yl)-carbamido]-phenyl}-1H-benzimidazol-5-yl morpholin-4-carboxylate] | > 1 µM | > 1 µM |
| 0.1 to 1 µM | 0.1 to 1 µM | > 1 µM | > 1 µM | > 1 µM | > 1 µM | > 1 µM | > 1 µM | CC(C)(C)c1cc(NC(=O)Nc2ccc(-n3ncc4cccc(F)c43)cc2)no1 [Compound 47, 1-(5-tert-butyl-isoxazol-3-yl)-3-[4-(7-fluoro-indazol-1-yl)-phenyl]-urea] | > 1 µM | > 1 µM |
| 0.1 to 1 µM | 0.1 to 1 µM | > 1 µM | > 1 µM | > 1 µM | > 1 µM | > 1 µM | > 1 µM | CC(C)(C)c1ccn(C(=O)Nc2ccc(-n3cnc4ccccc43)cc2)n1 [Compound 130, 3-tert-butyl-pyrazol-1-carboxylic acid (4-benzimidazol-1-yl-phenyl)-amide] | > 1 µM | > 1 µM |
| 0.01 to 0.1 µM | 0.01 to 0.1 µM | > 1 µM | > 1 µM | > 1 µM | > 1 µM | > 1 µM | > 1 µM | CC(C)(C)c1cc(N)n(C(=O)Nc2ccc(-n3cnc4cc(C(F)(F)F)ccc43)cc2)n1 [Compound 126, 5-amino-3-tert-butyl-pyrazol-1-carboxylic acid [4-(5-trifluoromethyl-benzimidazol-1-yl)-phenyl]-amide] | > 1 µM | > 1 µM |
| 0.0001 to 0.001 µM | 0.0001 to 0.001 µM | 0.1 to 1 µM | 0.1 to 1 µM | 0.1 to 1 µM | 0.1 to 1 µM | 0.1 to 1 µM | > 1 µM | CC(C)(C)c1cc(NC(=O)Nc2ccc(-n3cnc4cc(OCCN5CCCCC5)ccc43)cc2)no1 [Compound 17, 1-(5-tert-butyl-isoxazol-3-yl)-3-{4-[5-(2-piperidin-1-yl-ethoxyl)-benzimidazol-1-yl]-phenyl}-urea] | 0.1 to 1 µM | 0.1 to 1 µM |

| Structure (SMILES) | GI50 [1] | GI50 [2] | GI50 [3] | GI50 [4] | GI50 [5] | GI50 [6] | GI50 [9] | GI50 [10] | GI50 [7] | GI50 [8] |
| --- | --- | --- | --- | --- | --- | --- | --- | --- | --- | --- |
| CC(C)COc1ccc2c(c1)ncn2-c1ccc(NC(=O)Nc2cc(C(C)(C)C)n[nH]2)cc1 [Compound 76, 1-(5-tert-butyl-2H-pyrazol-3-yl)-3-[4-(5-isobutoxy-benzimidazol-1-yl)-phenyl]-urea] | 0.001 to 0.01 µM | 0.001 to 0.01 µM | > 1 µM | > 1 µM | > 1 µM | > 1 µM | > 1 µM | > 1 µM | > 1 µM | > 1 µM |
